Patent EP0795549A1, “Bis-aryloxy(amino)-triazinyl-oxy(amino)aryl derivatives, their preparation and their use as antiviral agents” (American Cyanamid Company, priority 1996, dated 1997)
Like-named read-outs stand apart in the source and are kept apart here.

Legend:
[1] = system: vero cells; test: effect on cells: appearance of fixed, crystal violet-stained monolayer (vero); assay type: cell-based, African green monkey; parameters: key: N, no effect on the appearance of the alcohol-fixed and crystal violet-stained cell monolayer at the indicated compound concentration.; L, lightening of the intensity of staining (compared to controls) of the alcohol-fixed and crystal violet-stained cell monolayer at the indicated compound concentration but not at half that concentration; details: at 75 µg/ml
[2] = system: CMV (Ad169); test: viral yield reduction (growth inhibition) assay, CMV; assay type: cell-based, Cytomegalovirus; details: for Antiviral IC50 µg/ml CMV /HF: Table 1a
Procedure: (§1) The compounds were tested for biological activity using viral yield reduction assays. Host cells (indicated as HF for human foreskin fibroblasts and as vero, the commonly used African green monkey cell line, in Tables 1 and 1a) were plated at 4 x 10^4 cells/well in cell growth medium with 2% fetal bovine serum or 2% calf serum in 96-well plates (0.1 ml/well) and incubated overnight. The compounds were added to individual wells to give final concentrations ranging from 50 to 0.1 µg/ml in two-fold concentration steps. After 1 hour, virus was added, and the incubation was continued for 4 days with RSV or CMV and for 2 days with HSV. At the end of the experiment, the amount of virus growth was quantitated and the yield reduction at various concentrations of compound was calculated. This allows estimation of the concentration of compound giving 50% reduction in virus growth (IC50).

[3] = system: HSV1 (Patton); test: viral yield reduction (growth inhibition) assay, HSV; assay type: cell-based, Herpes Simplex Virus; details: for Antiviral IC50 µg/ml HSV Vero: Table 1a, format not given
Procedure: as §1

[4] = system: RSV (A2); test: viral yield reduction (growth inhibition) assay, RSV; assay type: cell-based, Respiratory Syncitial Virus; details: for IC50 µG/mL IN GROWTH […]/ VERO: vero host cells
Procedure: as §1

[5] = system: human foreskin fibroblasts (HF); test: effect on cells: appearance of fixed, crystal violet-stained monolayer (HF); assay type: cell-based; parameters: key: N, no effect on the appearance of the alcohol-fixed and crystal violet-stained cell monolayer at the indicated compound concentration.; L, lightening of the intensity of staining (compared to controls) of the alcohol-fixed and crystal violet-stained cell monolayer at the indicated compound concentration but not at half that concentration
[6] = system: CMV (Ad169); test: viral plaque reduction assay, CMV; assay type: cell-based, Cytomegalovirus
[7] = system: HSV1 (Patton); test: viral plaque reduction assay, HSV1; assay type: cell-based, Herpes Simplex Virus; details: for IC50µG/mL IN PLAQUE ASSAY HSV/ VER O: HSV1 (Patton), vero host cells
[8] = system: RSV; test: viral plaque reduction assay, RSV; assay type: cell-based, Respiratory Syncitial Virus
[9] = system: RSV A2; assay type: in vivo, cotton rats
[10] = Table 1a, HF, yield reduction or plaque format not specified
[11] = EXPT 3, i.n. 30 mg/k d1,2,3, Lavage/CPE
[12] = EXPT 3, i.n. 30 mg/k d1,2,3, Lavage/Plaque
[13] = EXPT 3, i.n. 30 mg/k d1,2,3, Lung/Plaque
[14] = EXPT 3, i.n. d0 15 mg/k, d1 30 mg/k, Lavage/CPE
[15] = EXPT 3, i.n. d0 15 mg/k, d1 30 mg/k, Lavage/Plaque
[16] = EXPT 3, i.n. d0 15 mg/k, d1 30 mg/k, Lung/Plaque
[17] = EXPT 3, i.n. d0 15 mg/k, d1,2,3 30 mg/k, Lavage/CPE
[18] = EXPT 3, i.n. d0 15 mg/k, d1,2,3 30 mg/k, Lavage/Plaque
[19] = EXPT 3, i.n. d0 15 mg/k, d1,2,3 30 mg/k, Lung/Plaque
[20] = EXPT 3, i.p. 30 mg/k d1,2,3, Lavage/CPE
[21] = EXPT 3, i.p. 30 mg/k d1,2,3, Lavage/Plaque
[22] = EXPT 3, i.p. 30 mg/k d1,2,3, Lung/Plaque

4,4'-Bis-[[4,6-bis-[[3-[[bis-[3-(methylamino)-3-oxopropyl]amino]sulfonyl]phenyl]amino]-1,3,5-triazin-2-yl]amino] [1,1'-biphenyl]-2,2'-disulfonic acid, disodium salt [Example 34]
Effect on cells @ µg/ml indicated Vero [1]: L@75 | Antiviral IC50 µg/ml CMV /HF ([2]; HF, format not given): >50 µg/mL | Antiviral IC50 µg/ml HSV Vero ([3]; HSV1 (Patton)): >50 µg/mL | Antiviral IC50 µg/ml RSV/ HF [4, 10]: 1.2 µg/mL | Effect on cells @ µg/ml indicated HF ([5]; at 75 µg/ml): N@75

4,4'-Bis[4,6-di[3-aminophenyl-N,N-bis(2-carbamoyl-ethyl)sulfonylimino]-1,3,5-triazin-2-ylamino]-biphenyl-2,2'-disulfonic acid, disodium salt [Example 4]
IC50 µG/mL IN GROWTH […]/ HF ([2]; HF host cells): 35 µg/mL | IC50µG/mL IN PLAQUE ASSAY CMV/ HF ([6]; CMV (Ad169), HF host cells): > 30 µg/mL | IC50 (µG/ml) viral plaque formation ([6]; HCMV Ad169, HF, Pre): >30 µg/mL | IC50µG/mL IN PLAQUE ASSAY HSV/ VER O [7]: 35 µg/mL | IC50 (µG/ml) viral plaque formation ([7]; HSV1 Patton, VERO, Pre): 35 µg/mL | IC50 (µG/ml) viral plaque formation ([8]; RSV 2B, VERO, Post 2 hours): 0.08 µg/mL | IC50 (µG/ml) viral plaque formation ([8]; RSV 3A, VERO, Post 2 hours): 0.15 µg/mL | IC50 (µG/ml) viral plaque formation ([8]; RSV 9320, VERO, Post 2 hours): 0.18 µg/mL | IC50 (µG/ml) viral plaque formation ([8]; RSV 18736, VERO, Post 2 hours): 0.06 µg/mL | IC50µG/mL IN PLAQUE ASSAY RSV/ VERO ([8]; RSV (A2), vero host cells): 0.1 µg/mL | IC50 (µG/ml) viral plaque formation ([8]; RSV A2, VERO, Post 2 hours): 0.28 µg/mL | IC50 (µG/ml) viral plaque formation ([8]; RSV A2, VERO, Pre (pretreatment)): 0.1 µg/mL | IC50 (µG/ml) viral plaque formation ([8]; RSV LONG, VERO, Post 2 hours): 0.21 µg/mL | IC50 (µG/ml) viral plaque formation ([8]; RSV RSS2, VERO, Post 2 hours): 0.20 µg/mL | active against all RSV strains tested (plaque assays) ([8]; all RSV strains tested): 0.1 to 0.7 µg/mL | Fold red. log10 [9, 11]: 2.51 log10 | Mean titer log10/g lung [9, 11]: 1.67 log10/g lung | Fold red. log10 [9, 12]: 1.2 log10 | Mean titer log10/g lung [9, 12]: 3.09 log10/g lung | Fold red. log10 [9, 13]: 1.18 log10 | Mean titer log10/g lung [9, 13]: 3.37 log10/g lung | Fold red. log10 [9, 14]: 2.52 log10 | Mean titer log10/g lung [9, 14]: 1.66 log10/g lung | Fold red. log10 [9, 15]: 2.03 log10 | Mean titer log10/g lung [9, 15]: 2.26 log10/g lung | Fold red. log10 [9, 16]: 2.23 log10 | Mean titer log10/g lung [9, 16]: 2.32 log10/g lung | Fold red. log10 [9, 17]: 2.13 log10 | Mean titer log10/g lung [9, 17]: 2.05 log10/g lung | Fold red. log10 [9, 18]: 2.04 log10 | Mean titer log10/g lung [9, 18]: 2.25 log10/g lung | Fold red. log10 [9, 19]: 2.3 log10 | Mean titer log10/g lung [9, 19]: 2.25 log10/g lung | Fold red. log10 [9, 20]: 0 log10 | Mean titer log10/g lung [9, 20]: 4.18 log10/g lung | Fold red. log10 [9, 21]: 0.09 log10 | Mean titer log10/g lung [9, 21]: 4.1 log10/g lung | Fold red. log10 [9, 22]: 0.26 log10 | Mean titer log10/g lung [9, 22]: 3.92 log10/g lung | inhibition of RSV in vivo (summary in words) ([9]; cotton rats, summary of Table 3): inhibit RSV in vivo | Fold red. log10 ([9]; rat, in vivo): 1.63 log10 | Mean titer log10/g lung ([9]; rat, in vivo): 2.05 log10/g lung | IC50 µG/mL IN GROWTH […]/ HF ([3]; HSV1 (Patton), HF host cells): 20 µg/mL | IC50 µG/mL IN GROWTH […]/ VERO ([3]; HSV1 (Patton), vero host cells): 35 µg/mL | IC50 µG/mL IN GROWTH […]/ HF ([4]; HF host cells): 0.1 µg/mL | IC50 µG/mL IN GROWTH […]/ VERO [4]: 0.1 µg/mL

4,4'Bis-(4,6-bis-{3-[bis-(2-hydroxy-propyl)-sulfamoyl]-phenylamino}-[1,3,5]triazin-2-ylamino)biphenyl-2,2'-disulfonic acid, disodium salt [Example 40]
Effect on cells @ µg/ml indicated Vero [1]: N@75 | Antiviral IC50 µg/ml CMV /HF ([2]; HF, format not given): 4 µg/mL | Antiviral IC50 µg/ml HSV Vero ([3]; HSV1 (Patton)): 20 µg/mL | Antiviral IC50 µg/ml RSV/ HF [4, 10]: 0.2 µg/mL | Effect on cells @ µg/ml indicated HF ([5]; at 75 µg/ml): N@75

4,4'Bis[4,6-di[3-aminophenyl-N,N-bis(2-hydroxyethyl)sulfonylimino]-1,3,5-triazin-2-ylamino]-stilbene-2,2'-disulfonic acid, disodium salt [Example 5]
IC50µG/mL IN PLAQUE ASSAY HSV/ VER O [7]: 8 µg/mL | IC50 µG/mL IN GROWTH […]/ VERO [4]: 0.4 µg/mL

O=C([O-])c1cc(Nc2nc(Nc3cccc(S(=O)(=O)N(CCO)CCO)c3)nc(Nc3cccc(S(=O)(=O)N(CCO)CCO)c3)n2)ccc1-c1ccc(Nc2nc(Nc3cccc(S(=O)(=O)N(CCO)CCO)c3)nc(Nc3cccc(S(=O)(=O)N(CCO)CCO)c3)n2)cc1C(=O)[O-].[Na+].[Na+] [Example 57, 4,4'-Bis-(4,6-bis-{3-[bis-(2-hydroxyethyl)-sulfamoyl]-phenylamino}-[1,3,5]-triazin-2-ylamino)biphenyl-2,2'dicarboxylic acid, disodium salt]
Effect on cells @ µg/ml indicated Vero [1]: N@75 | IC50 ([2]; Human betaherpesvirus 5, Table 1a, HF, format not given, read-out: Antiviral IC50 µg/ml CMV /HF): 4 µg/mL | IC50 ([3]; Human alphaherpesvirus 1, Vero, read-out: Antiviral IC50 µg/ml HSV Vero): 30 µg/mL | IC50 ([4]; human respiratory syncytial virus, Table 1a, HF, yield reduction or plaque format not specified, read-out: Antiviral IC50 µg/ml RSV/ HF): 1.5 µg/mL

(E)-2,2'-(1,2-Ethenediyl)bis[5-[[4,6-bis[[3-[[3,5-bis(aminocarbonyl)-1-piperedinyl]sulfonyl]phenyl]amino]-1,3,5-triazin-2-yl]benzenesulfonic acid], disodium salt [Example 52]
Antiviral IC50 µg/ml RSV/ HF [4, 10]: 1.5 µg/mL | Antiviral IC50 µg/ml RSV/ Vero ([4]; Table 1a, vero, format not given): 1.5 µg/mL | Effect on cells @ µg/ml indicated HF ([5]; at 37 µg/ml): L@37
